Where a SMILES comes first, the peptide text is derived from it.
Tested on: A431 human skin squamous cell carcinoma cells
Assay: In vitro cellular uptake quantified by flow cytometry
Type: cell-based
Conditions: all concentrations (0.2–25 μM), 90 min, ratio of Cf-positive cells and mean fluorescence intensity

## N=C(N)NCCC[C@H](NC(=O)[C@@H]1CCCN1C(=O)[C@H](CCC(N)=O)NC(=O)[C@H](CCCCN)NC(=O)[C@H](CC(=O)O)NC(=O)[C@@H]1CCCN1C(=O)[C@H](Cc1ccccc1)NC(=O)CNC(=O)[C@H](CCC(=O)O)NC(=O)[C@H](Cc1ccccc1)NC(=O)[C@@H](N)Cc1ccccc1)C(=O)N[C@@H](CCCCN)C(=O)N[C@@H](CCCCN)C(N)=O [Peptide S100] (H-FFEGFPDKQPRKK-NH2)
  cellular uptake rate, comparison between peptides: lowest cellular uptake rate

Source: PMC8697381 (ACS Omega, 2021)
